Test results as given in US20110306635A1, “PYRIDINE COMPOUNDS AS SUBTYPE SELECTIVE MODULATORS OF ALPHA2B AND /OR ALPHA 2C […]” (ALLERGAN ,INC., priority 2009, published 2011).

What was measured:
Format in all cases: cell-based
[1] = biological target: T1, alpha 2A adrenergic receptor (Homo sapiens, UniProt P08913); experiment: RSAT (Receptor Selection and Amplification Technology) assay, alpha 2A; details: cells expressing alpha 2A receptor alone; receptor-mediated growth response
T1 construct: expressed in transfected cells
T1 sequence (P08913 1-465): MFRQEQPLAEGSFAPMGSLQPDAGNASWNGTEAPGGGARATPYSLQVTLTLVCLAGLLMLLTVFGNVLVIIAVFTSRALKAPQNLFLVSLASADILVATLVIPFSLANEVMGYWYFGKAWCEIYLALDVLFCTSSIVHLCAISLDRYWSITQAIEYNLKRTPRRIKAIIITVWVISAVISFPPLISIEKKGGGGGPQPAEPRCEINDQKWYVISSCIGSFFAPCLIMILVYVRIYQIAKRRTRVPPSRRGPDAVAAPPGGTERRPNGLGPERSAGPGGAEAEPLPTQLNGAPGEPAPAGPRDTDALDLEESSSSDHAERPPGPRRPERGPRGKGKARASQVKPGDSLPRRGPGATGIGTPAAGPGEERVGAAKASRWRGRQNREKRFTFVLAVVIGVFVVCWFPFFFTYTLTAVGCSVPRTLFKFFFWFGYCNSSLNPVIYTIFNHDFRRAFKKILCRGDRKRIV
Experimental: (§1) The compounds were synthesized and tested for alpha adrenergic activity using the Receptor Selection and Amplification Technology (RSAT) assay (Messier et. al., 1995, Pharmacol. Toxicol. 76, pp. 308-311). Cells expressing each of the alpha-2 adrenergic receptors alone were incubated with the Compound 1 and a receptor-mediated growth response was measured. A compound's activity is expressed as its relative efficacy compared to a standard full agonist (see table). Compound of this invention activates alpha-2B and alpha-2C receptors.
(§2) The results of the RSAT assay with several exemplary compounds of the invention are disclosed in Table 1 below together with the chemical formulas of these exemplary compounds. EC50 values are nanomolar.

[2] = biological target: T2, alpha 2C adrenergic receptor (Homo sapiens, UniProt P18825); experiment: RSAT (Receptor Selection and Amplification Technology) assay, alpha 2C; details: for EC50: cells expressing alpha 2C receptor alone, receptor-mediated growth response; for RSAT efficacy, Alpha 2C: relative efficacy compared to a standard full agonist (value in parentheses)
T2 construct: expressed in transfected cells
T2 sequence (P18825 1-462): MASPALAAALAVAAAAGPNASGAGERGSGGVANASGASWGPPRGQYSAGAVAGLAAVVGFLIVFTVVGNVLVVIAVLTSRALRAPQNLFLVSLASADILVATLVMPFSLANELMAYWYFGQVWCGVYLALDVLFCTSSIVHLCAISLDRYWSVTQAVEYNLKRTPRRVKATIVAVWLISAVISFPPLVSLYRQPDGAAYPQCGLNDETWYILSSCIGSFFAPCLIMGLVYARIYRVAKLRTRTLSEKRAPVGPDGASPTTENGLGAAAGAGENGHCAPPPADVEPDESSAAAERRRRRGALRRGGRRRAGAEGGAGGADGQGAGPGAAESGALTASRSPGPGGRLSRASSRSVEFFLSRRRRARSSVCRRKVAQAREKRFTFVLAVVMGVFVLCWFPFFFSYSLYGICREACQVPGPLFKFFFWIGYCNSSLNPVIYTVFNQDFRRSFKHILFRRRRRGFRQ
Experimental: as §1, §2

[3] = biological target: T3, alpha 2B adrenergic receptor (Homo sapiens, UniProt P18089); experiment: RSAT (Receptor Selection and Amplification Technology) assay, alpha 2B; details: for EC50: cells expressing alpha 2B receptor alone, receptor-mediated growth response; for RSAT efficacy, Alpha 2B: relative efficacy compared to a standard full agonist (value in parentheses)
T3 construct: expressed in transfected cells
T3 sequence (P18089 1-450): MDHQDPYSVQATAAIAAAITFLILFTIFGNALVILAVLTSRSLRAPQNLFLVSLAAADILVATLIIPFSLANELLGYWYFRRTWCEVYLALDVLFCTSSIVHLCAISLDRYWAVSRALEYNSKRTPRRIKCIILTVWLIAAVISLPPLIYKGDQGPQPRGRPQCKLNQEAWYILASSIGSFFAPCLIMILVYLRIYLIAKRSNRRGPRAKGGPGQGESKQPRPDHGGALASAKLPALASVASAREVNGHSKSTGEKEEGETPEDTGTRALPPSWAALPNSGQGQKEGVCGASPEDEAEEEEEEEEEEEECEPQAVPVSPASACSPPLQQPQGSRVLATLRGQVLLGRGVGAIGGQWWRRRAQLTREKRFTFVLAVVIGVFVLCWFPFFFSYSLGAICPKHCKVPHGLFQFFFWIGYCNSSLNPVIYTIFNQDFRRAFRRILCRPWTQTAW
Experimental: as §1, §2

Compound	RSAT EC50 (nM); efficacy, Alpha 2A [1]	EC50 [2]	RSAT efficacy, Alpha 2C [2]	EC50 [3]	RSAT efficacy, Alpha 2B [3]
Cc1nccc(C(C)c2c[nH]cn2)c1C (stereo not shown) [4-(1-(1H-imidazol-4-yl)ethyl)-2,3-dimethylpyridine]	Not active	1290 nM	0.35	16.7 nM	0.99
CC(c1c[nH]cn1)c1ccnc2c1CCCC2 (stereo not shown) [4-(1-(1H-imidazol-4-yl)ethyl)-5,6,7,8-tetrahydroquinoline]	Not active	370 nM	0.35	23.5 nM	1.12
